{"source": "patent US7781393B2", "about": "“Methods for inhibiting tumor cell growth” (Dana-Farber Cancer Institute, Inc., priority 2004, dated 2010)", "key": {"[1]": {"test_system": "58 hematologic and solid tumor cell lines", "test": "MTT colorimetric survival assay, panel of hematologic and solid tumor cell lines", "format": "cell-based, human", "conditions": "all cell lines; 0-10 μM for 72 hours"}, "MM-1S-Luc human MM cells": {"test_system": "MM-1S-Luc human MM cells", "test": "Model of diffuse skeletal MM lesions, bioluminescence imaging and survival", "format": "in vivo", "method": "Briefly, male (6 to 8-week old) SCIDI/NOD mice (Jackson Laboratories, Bar Harbor, Me.) were sublethally irradiated (300 rads) using ^137CS γ-irradiator source. After 3-6 hours, 5×10^6 MM-1S-luc^+ cells in 100 μL of phosphate-buffered saline (PBS) was injected via the tail vein into each mouse. Mice were monitored daily for changes in their body weight, signs of infection, and paralysis, and weekly by whole-body bioluminescence imaging utilizing the In Vivo Imaging System (IVIS, Xenogen Corp, Alameda, Calif.) with total imaging time of 2 min, bin 2. Total body bioluminescence was quantified by integrating the photonic flux (photons/sec) through a standardized region of interest encompassing each mouse (Living Images, Xenogen). […] Melphalan (Alkeran, GlaxoSmithKline, Research Triangle Park, N.C.) was formulated according to manufacturer's instructions, and was administered by i.p. injection. All animal studies were approved by the Dana-Farber Cancer Institute Animal Care and Use Committee.\nStatistical significance for in vitro assay results was examined by 2-way analysis of variance, followed by Duncan's post-hoc test. Statistical significance for bioluminescence imaging studies was determined by two-tailed student's t-test. In all analyses, P<0.05 was considered statistically significant. For assessment of in vivo anti-tumor activity, the overall survival of mice was defined as the time between i.v. injection of tumor cells and sacrifice or, death and was compared across different treatment groups with Kaplan-Meier survival analysis.\nThe in vivo anti-tumor activity of IGF-1R inhibition in a mouse xenograft model of MM was examined. The MM cell line MM-1S was engineered to stably express firefly luciferase fused to a selectable marker (neomycin phosphotransferase or enhanced GFP). Sub-lethally irradiated NOD/SCID mice were injected intravenously with MM-1S-Luc cells and tumor distribution was followed by serial whole-body non-invasive imaging of visible light emitted by luciferase-expressing tumor cells upon injection of mice with luciferin.\nSublethally irradiated NOD/SCID mice were injected with MM1S-Luc cells, and serially imaged to monitor tumor burden. After 2-3 weeks, cohorts of mice with similarly increasing tumor burden were divided into control and treatment groups."}, "CD138+ MM cells": {"test_system": "CD138+ MM cells", "test": "Flow cytometric analysis of unpurified bone marrow mononuclear cells", "format": "cell-based, human", "conditions": "500 nM, 72 hours, 20% serum; BM stromal cells not suppressed"}, "BM stromal cells (BMSCs)": {"test_system": "BM stromal cells (BMSCs)", "test": "Viability of bone marrow stromal cells (MTT)", "format": "cell-based, human", "conditions": "500 nM for 72 hrs", "method": "Primary MM patient samples were freshly isolated from bone marrow aspirates from patients undergoing diagnostic or restaging bone marrow aspirates under an IRB-approved protocol. MM cells were purified using custom-made RosetteSep cocktail of monoclonal antibodies (mAb's) (StemCell Technologies Inc, Vancouver, Canada) for negative selection of CD138^+ MM cells. The CD138^− fraction of the MM cell purification process was cultured in 20% FBS-supplemented media for isolation of the adherent bone marrow stromal cells. Peripheral blood B cells were isolated by ficoll-density centrifugation of peripheral blood samples from MM patients. […] […] At the end of each treatment, cells were incubated with 1 mg/ml MTT for 4 hours at 37° C.; a mixture of isopropanol and 1N HCl (23:2, v/v) was then added under vigorous pipetting to dissolve the formazan crystals. Dye absorbance (A) in viable cells was measured at 570 nm, with 630 nm as a reference wavelength. Cell survival was estimated as a percentage of the value of untreated controls. All experiments were repeated at least three times, and each experimental condition was repeated at least in quadruplicate wells in each experiment."}, "[2]": {"test_system": "SW579 papillary thyroid carcinoma cells", "test": "VEGF ELISA, IGF-1-stimulated thyroid carcinoma cells", "format": "cell-based, human", "conditions": "750 nM; IGF-1 200 ng/mL in serum-free medium", "method": "Flow cytometric analyses for IGF-1R, and IGF-2R were performed as previously described on a EPICS-XL-MCL flow cytometer (Beckman Coulter). Previously described protocols were applied for immunoblotting analyses; TRAP telomerase activity assay; 20S proteasome chymotryptic activity assay; DNA binding activity ELISAs for quantitative assessments of NF-κB and HIF-1a transcriptional activities. VEGF and IGF-1 ELISAs were performed according to manufacturer's instructions (R&D Systems, Minneapolis, Minn.)."}, "[3]": {"test_system": "MM cells, prostate cancer cells, SK-N-MC sarcoma cells", "test": "Sensitization of tumor cells to other anti-cancer therapies in vitro", "format": "cell-based, human", "conditions": "MM cells to doxorubicin, melphalan, dexamethasone, TRAIL/Apo2L, PS-341, SK-N-MC to Fas ligation", "method": "The ability of IGF-1R inhibitors to sensitize tumor cells to other anti-cancer therapies in vitro was determined."}, "HIF-1α": {"test_system": "HIF-1α", "test": "HIF-1α DNA binding activity ELISA", "format": "cell-based, human", "method": "Flow cytometric analyses for IGF-1R, and IGF-2R were performed as previously described on a EPICS-XL-MCL flow cytometer (Beckman Coulter). Previously described protocols were applied for immunoblotting analyses; TRAP telomerase activity assay; 20S proteasome chymotryptic activity assay; DNA binding activity ELISAs for quantitative assessments of NF-κB and HIF-1a transcriptional activities. VEGF and IGF-1 ELISAs were performed according to manufacturer's instructions (R&D Systems, Minneapolis, Minn.). 20S proteasome chymotryptic activity assay was performed as described [Shringarpure 2003]. The transcriptional activity of DNA binding activity of NF-κB and HIF-1α was measured as previously reported. Libermann T A, et al., . Proc Natl Acad Sci USA; 2002 99: 14374-14379; Mitsiades N. et al., 2002, 99: 4079-4086; Mitsiades N. et al., 2002; Blood 99: 4525-4530 and Mitsiades N., et al 2003 Blood; 101: 2377-2380."}, "[4]": {"conditions": "monotherapy 10 mg/kg i.p. twice daily"}}, "data": [{"smiles": "Nc1ncnc2c1c(-c1cccc(OCc3ccccc3)c1)cn2[C@H]1C[C@H](CN2CCCC2)C1", "note": "[ADW-742, trans-5-(3-benzyloxy-phenyl)-7-(3-pyrrolidin-1-ylmethyl-cyclobutyl)-7H-pyrrolo[2,3-d]pyrimidin-4-ylamine]", "values": [{"measurement": "inhibition of serum-induced cell growth", "setting": "[1]", "value": "Dose-dependent inhibition"}, {"measurement": "treatment-related toxicity", "setting": "MM-1S-Luc human MM cells; 10 mg/kg i.p. twice daily", "value": "no other significant treatment-related toxicity"}, {"measurement": "median overall survival", "setting": "MM-1S-Luc human MM cells; 10 mg/kg i.p. twice daily for 19 days, control 21 days, P=0.02 log-rank", "value": 38, "unit": "days"}, {"measurement": "anti-tumor activity, pulsatile administration", "setting": "MM-1S-Luc human MM cells; 10 mg/kg i.p. twice daily, 4 days per week, alone", "value": "no significant anti-tumor activity"}, {"measurement": "body weight", "setting": "MM-1S-Luc human MM cells; 10 mg/kg i.p. twice daily, between treatment groups, P=0.82", "value": "no difference in body weight"}, {"measurement": "survival, combination with melphalan", "setting": "MM-1S-Luc human MM cells; melphalan 2.5 mg i.p once a week followed by ADW-742 10 mg/kg i.p. twice daily, 4 days per week", "value": "synergistic effect in prolonging the survival of mice"}, {"measurement": "survival of mice", "setting": "MM-1S-Luc human MM cells; [4]", "value": "prolongs the survival of mice"}, {"measurement": "tumor growth", "setting": "MM-1S-Luc human MM cells; [4]", "value": "significantly suppresses tumor growth"}, {"measurement": "anti-tumor efficacy, further studies", "setting": "MM-1S-Luc human MM cells; second study same i.p. dosing, third study orally 50 mg/kg twice daily", "value": "Consistent results"}, {"measurement": "CD138+ population of malignant cells", "setting": "CD138+ MM cells", "value": "significant suppression"}, {"measurement": "viability of BM stromal cells", "setting": "BM stromal cells (BMSCs)", "value": "does not significantly affect"}, {"measurement": "IGF-1-induced secretion of VEGF", "setting": "[2]", "value": "suppresses"}, {"measurement": "sensitivity of tumor cells to other anti-cancer therapies", "setting": "[3]", "value": "increases the sensitivity"}, {"measurement": "IGF-1-induced HIF-1α activity", "setting": "HIF-1α", "value": "suppress"}]}]}
